The values that follow come from patent US11187660B2, “Fluorescent probes for monitoring voltage by photo-induced electron transfer” (The Regents of the University of California, priority 2011, dated 2021).

Entries after “also recorded” stand apart in the source; their conditions may differ.

Test [1] deals with leech Retzius cell. In words: Optical recording of spontaneous activity in leech ganglia. In kind it is cell-based, Hirudo medicinalis. The conditions noted are these: sampling at 50 Hz, stained 15 min. As to the method:
A more stringent test of the usefulness of the PeT-based VSD is to determine whether it can accurately measure subthreshold activity in heterogeneous preparations. For this test we used leech ganglia, because their neurons have been well studied using both electrophysiological and other VSD recordings (14, 33-35). We isolated a midbody ganglion and stained it with VF2.1.Cl for 15 min at 22° C. (FIG. 13C). Insertion of a sharp electrode (25 MΩ) into a Retzius cell to enabled recording of its spontaneous activity while simultaneously recording the fluorescence signals from the same cell. […] The optically recorded spikes are truncated as a result of undersampling the optical signal; sampling at a higher rate (722 Hz) fully resolved the action potentials, but introduced a significant amount of sampling noise (FIG. 14). Although the action potential was subsampled at just 50 Hz, there is still a reliable transient in the optical trace that indicates the time when an action potential occurs, which is often what is needed.
Isolated midbody ganglia (Ganglia 8-16) were dissected from Hirudo medicinalis and the ventral side was desheathed using standard procedures. […]
Imaging was done with a Cascade 128+ EMCCD camera (Photometrics). […] The fluorescence illumination was from an LED that has its peak excitation wave-length in the excitation range for FITC. […] The data is stored in Matlab-readable files.

The subject of test [2] is rat hippocampal neurons. As to the kind of experiment: Optical detection of evoked action potentials in cultured hippocampal neurons. In kind it is cell-based. How it is done: To assay VF2.4.Cl's utility for monitoring neuronal activity, hippocampal neurons isolated from rats neonates were loaded with 2 μM VF2.4.Cl for 15 minutes, washed twice and imaged. […] Neurons were patched, current clamped, and injected with a small pulse (250-400 pA, 1-5 ms) to induce action potential firing. By using a high speed EMCCD camera, capable of sampling small regions of interest (ROI) at rates of approximately 2 kHz, enabled single trial optical detection of action potentials. An action potential with a total voltage change of ˜130 mV was well resolved optically and gave a ΔF/F of 24% with a signal-to-noise ratio of 16. Smaller spikes were detectable as well, a 100 mV change gave a ΔF/F of 15% with an SNR of 15. The slightly diminished sensitivity in neurons (0.15% per mV in neurons vs 0.25% per mV in HEK cells) can be explained primarily by the heterogeneous nature of the preparation; overlapping, non-excitable membranes loaded with VF2.4.Cl contribute to a non-responsive fluorescent signal which dilutes the responsive fraction.
To assess whether VF probes can detect action potentials in single trials, we used cultured rat hippocampal neurons. […] We then injected current into a neuron under whole-cell patch-clamp mode to trigger single action potentials and used a high-speed, back-illuminated EMCCD camera to track fast optical signals from VF2.4.Cl, enabling us to resolve action potentials in neurons in single sweeps (FIG. 13B). The optical trace matched the physiology trace and gave about a 20% ΔF/F increase in fluorescence and a 16:1 signal-to-noise ratio (SNR) in a single trial.
HEK293 cells were cultured in DMEM (CellGrow) supplemented with 10% FBS, 1% penicillin/streptomycin (Invitrogen) and plated on glassbottom culture dishes (35 mm dish, 14 mm microwell with No. 0 coverglass) (MatTek Corporation). Hippocampal neurons were dissected from postnatal day 0 or 1 rat pups and plated on poly-D-lysine-coated glassbottom culture dishes. Neuronal recordings were made 14-28 days in culture.
Electrophysiological recordings of HEK293 cells and cultured neurons were performed with an Axopatch 200A or 200B amplifier (Molecular Devices) at room temperature. The signals were digitized with Digidata 1332A and recorded with pCLAMP 9 software (Molecular Devices) on a PC. Analysis of electrophysiological data was done with AxoGraph X (AxoGraphX), pCLAMP 9, and/or ClampFit (Molecular Devices). For most experiments the extracellular solution consisted of (in mM) 145 NaCl, 20 glucose, 10 HEPES, 3 KCl, 2 CaCl2, 1 MgCl2 (pH 7.35, 310 mOsm). The intracellular solution contained (in mM) 115 potassium gluconate, 10 BAPTA tetrapotassium salt, 10 HEPES, 5 NaCl, 10 KCl, 2 ATP disodium salt, 0.3 GTP trisodium salt (pH 7.25, 290 mOsm).
For voltage sensitivity measurements, regions of interest were drawn around clamped cells and the mean fluorescence measured in ImageJ or Slidebook. For HEK cells, background fluorescence was subtracted by measuring the fluorescence where no cells grew. For experiments in neurons, the background fluorescence was not subtracted. In all cases, ΔF/F was calculated by dividing the fluorescence signal by the average fluorescence for a baseline of 10-20 frames prior to stimulation.

For `CN(C)c1ccc(/C=C/c2ccc(/C=C/c3ccc(-c4c5cc(Cl)c(=O)cc-5oc5cc(O)c(Cl)cc45)c(S(=O)(=O)O)c3)cc2)cc1` [VF2.1.Cl, 5-(4-(4-(dimethyllamino)styryl)styryl)-2-(2,7-dichloro-6-hydroxy-3-oxo-3H-xanthen-9-yl)benzenesulfonic acid], in test [1], the “optical recording versus electrical recording of spontaneous activity” value was “near-perfect matching of the subthreshold membrane potential; also recorded: faithfully followed the subthreshold fluctuations”.

`CCCCN(CCCC)c1ccc(/C=C/c2ccc(/C=C/c3ccc(-c4c5cc(Cl)c(=O)cc-5oc5cc(O)c(Cl)cc45)c(S(=O)(=O)O)c3)cc2)cc1` [VF2.4.Cl, 5-(4-(4-(dibutylamino)styryl)styryl)-2-(2,7-dichloro-6-hydroxy-3-oxo-3H-xanthen-9-yl)benzenesulfonic acid]: in test [2] (100 mV change), the SNR is reported as 15 and the “ΔF/F for smaller spike” value is 15%. Further, the signal-to-noise ratio in test [2] (action potential ~130 mV, single trial) amounted to 16. The sensitivity in neurons in test [2] (rat hippocampal neurons) worked out at 0.15 % per mV. In test [2] (single trial, 2 μM, EMCCD 2 kHz), the “ΔF/F increase in fluorescence for evoked action potential” value is on record as about 20%. For the same compound, the “ΔF/F for action potential” value in test [2] (total voltage change ~130 mV, single trial, 2 μM) is 24%.
